The results in this text go back to paper PMC10022191, “Safety, tolerability, pharmacokinetics, and antiviral activity of the novel core protein allosteric modulator ZM-H1505R (Canocapavir) in chronic hepatitis B patients: a randomized multiple-dose escalation trial” (BMC Medicine, 2023).

SMILES strings stand for the structures.

This data set concerns the target genotype D HBV. Put plainly: primary human hepatocyte (PHH) assay, extracellular HBV DNA by qPCR. The protocol:
To determine the anti-HBV activity of ZM-H1505R, the primary human hepatocyte (PHH) assay was performed in vitro. One day after infection with genotype D HBV, ZM-H1505R was added to the culture medium of PHH. The culture medium supplemented with ZM-H1505R was changed every two days. The culture supernatants were collected, of which the extracellular HBV DNA content was measured by qPCR.

For the compound `O=C1CO[C@H](c2cn(-c3ccc(Br)cc3)nc2-c2ccc(F)cc2)N1CCc1ccc2[nH]c(=O)[nH]c2c1` [Canocapavir], for the setting “protein-binding adjusted”, the “protein binding-adjusted HBV DNA EC50” value was found to be 0.135 µg/mL and the “protein binding-adjusted HBV DNA EC90” value worked out at 0.937 µg/mL. Also, the EC50 (read-out: EC50, inhibition of extracellular HBV DNA generation, PHH infected with genotype D HBV) worked out at 12.3 nM. The EC90 (read-out: EC90, inhibition of extracellular HBV DNA generation, PHH infected with genotype D HBV) worked out at 83.3 nM.
